Where a name gives a salt, the structure may show the parent alone. Read-outs that look alike come from different tables or passages of the source.

The values below come from patent US20240299593A1, “SYSTEMS AND METHODS FOR GENERATION OF HYPERPOLARIZED MATERIALS” (NVISION IMAGING TECHNOLOGIES GMBH, priority 2021, published 2024).

For data set [1] the following is noted: ICH toxicity limits, cited from earlier work; for Limits: residual solvent concentration in carrier; for Permissible Daily Exposure: residual solvent.
Data set [2] is classed as physicochemical. As to conditions: for extraction efficiency (output/input acetone concentration in water): organic wash:aqueous 4:1; for extraction efficiency, comparison in words: with and without pyruvate in solution.
Data set [3] can be described thus: SABRE catalyst in acetone extraction study (proton NMR of both phases). The data set is classed as physicochemical. As to conditions: 1 ml Acetone-d6, 6 ml MTBE, 1 ml D2O.
Data set [4] can be described thus: Liquid-liquid purification system, Example 1 (samples of phases analyzed).
Method: A system was prepared comprising a first vessel, a second vessel fluidly connected to the first vessel, and a third vessel fluidly connected to the second vessel. The vessels and the fluid path were covered by a defined magnetic field provided by solenoids to prevent undesired hyperpolarisation loss during the processing of a solution through the system.
The mixture was bubbled with nitrogen gas, and 1.0 mL of base (400 mM NaOD in D2O) was injected into Vessel 1 to cleave the pyruvate ester into sodium pyruvate and the corresponding unbonded sidearm.
The solution in Vessel 1 was then subjected to a first washing step. 20 mL of organic washing solvent (e.g., diethyl ether or tert-butyl methyl ether) were injected into the solution, and then agitated using nitrogen gas bubbling. The mixture was then allowed to settle for about 10 seconds until a clear phase separation between the aqueous phase (lower phase) and the organic phase (upper phase) had formed.
The aqueous phase from Vessel 1 was pumped into Vessel 2, which had been prefilled with 20 mL of the same organic washing solvent (e.g., diethyl ether or tert-butyl methyl ether). The mixture was again agitated using nitrogen gas bubbling, and allowed to settle for about 10 seconds until a clear phase separation between the aqueous phase (lower phase) and the organic phase (upper phase) had formed. […]

Turning to `ClC=C(Cl)Cl` [1,1,2-Trichloroethene], in data set [1], the Limits was 80 ppm and the “Permissible Daily Exposure” value is given as 0.8 mg/day.
On to Xylene, for which, in data set [1], the Limits is 2170 ppm and the “Permissible Daily Exposure” value is 21.7 mg/day.
As to `CCCCCO` [1-Pentanol], in data set [1], the Limits was 5000 ppm and the “Permissible Daily Exposure” value was 50 mg/day.
Consider `CC(=O)CC(C)C` [Methylisobutyl ketone], for which, in data set [1], the Limits is 5000 ppm and the “Permissible Daily Exposure” value is given as 50 mg/day.
As for `CCOCC` [Diethyl ether], the “extraction efficiency (output/input acetone concentration in water)” value in data set [2] (9000 mM acetone, No Pyruvate) stood at 0.29. Besides, the “extraction efficiency, comparison in words” value in data set [2] is on record as “effective extraction efficiency”.
`CCCCOC(C)=O` [Butyl acetate]: in data set [1], the Limits was 5000 ppm and the “Permissible Daily Exposure” value was 50 mg/day.
With `CCCCCC` [Hexane], in data set [1], the Limits is 290 ppm and the “Permissible Daily Exposure” value is reported as 2.9 mg/day.
With `CCOCCO` [2-Ethoxyethanol], in data set [1], the Limits was 160 ppm and the “Permissible Daily Exposure” value is reported as 1.6 mg/day.
As to `C1CCCCC1` [Cyclohexane], in data set [1], the Limits is 3880 ppm and the “Permissible Daily Exposure” value is 38.8 mg/day.
For `CCCCC(C)=O` [Methylbutyl ketone], in data set [1], the Limits is given as 50 ppm and the “Permissible Daily Exposure” value is given as 0.5 mg/day.
`ClC(Cl)(Cl)Cl` [Carbon tetrachloride]: the Limits in data set [1] is on record as 4 ppm.
As to `CC#N` [Acetonitrile], in data set [1], the Limits is listed as 410 ppm and the “Permissible Daily Exposure” value is 4.1 mg/day.
Regarding `c1ccc2c(c1)CCCC2` [Tetralin], in data set [1], the Limits is listed as 100 ppm and the “Permissible Daily Exposure” value was 1.0 mg/day.
`CC(C)=O` [Acetone]: the “concentration in the aqueous phase after washing” value in data set [3] is “lower in the aqueous phase after washing”. In addition, in data set [1], the Limits is recorded as 5000 ppm and the “Permissible Daily Exposure” value is 50 mg/day.
`C[S+](C)[O-]` [Dimethyl sulfoxide]: in data set [1], the Limits is 5000 ppm and the “Permissible Daily Exposure” value is listed as 50 mg/day.
For `CC(=O)C(=O)[O-].[Na+]` [sodium pyruvate], the pH in data set [4] (Vessel 1, after hydrolysis and phosphate buffer, acetone/D2O) is listed as 6-9; in data set [4] (Vessel 3, final samples) it was 6-9.
Turning to `CCOC=O` [Ethyl formate], in data set [1], the Limits was 5000 ppm and the “Permissible Daily Exposure” value was 50 mg/day.
For the compound `CN(C)C=O` [N,N-Dimethylformamide], the Limits in data set [1] is 880 ppm.
Take `CCO` [Ethanol]: in data set [1], the Limits was 5000 ppm and the “Permissible Daily Exposure” value is given as 50 mg/day.
With `NC=O` [Formamide], in data set [1], the Limits is listed as 220 ppm and the “Permissible Daily Exposure” value was 2.2 mg/day.
With `ClCCl` [Dichloromethane], the “extraction efficiency (output/input acetone concentration in water)” value in data set [2] (2000 mM acetone, With Pyruvate) is given as 0.04; in data set [2] (9000 mM acetone, No Pyruvate) it was 0.07; in data set [2] (9000 mM acetone, With Pyruvate), 0.06. In addition, the “extraction efficiency, comparison in words” value in data set [2] was “best extraction efficiency”. Besides, in data set [1], the Limits is on record as 600 ppm. Besides, in data set [1], the “Permissible Daily Exposure” value is on record as 6.0 mg/day.
`CC(Cl)(Cl)Cl` [1,1,1-Trichloroethane]: in data set [1], the Limits was 1500 ppm.
As to `CN1CCCC1=O` [N-Methylpyrrolidone], in data set [1], the Limits is reported as 530 ppm and the “Permissible Daily Exposure” value is given as 15.3 mg/day.
Regarding `COc1ccccc1` [Anisole], in data set [1], the Limits was 5000 ppm and the “Permissible Daily Exposure” value is 50 mg/day.
Consider `COC(C)(C)C` [tert-Butylmethyl ether], for which the “extraction efficiency (output/input acetone concentration in water)” value is listed as 0.33 in data set [2] (2000 mM acetone, No Pyruvate); 0.27 in data set [2] (2000 mM acetone, With Pyruvate); 0.24 in data set [2] (9000 mM acetone, No Pyruvate); 0.23 in data set [2] (9000 mM acetone, With Pyruvate). Besides, the “extraction efficiency, comparison in words” value in data set [2] is listed as “effective extraction efficiency”. Besides, the Limits in data set [1] is listed as 5000 ppm. In addition, the “Permissible Daily Exposure” value in data set [1] is listed as 50 mg/day.
On to `CCCCCCC` [Heptane], for which, in data set [1], the Limits was 5000 ppm and the “Permissible Daily Exposure” value was 50 mg/day.
Consider `CC(=O)O` [Acetic acid], for which the Limits in data set [1] is 5000 ppm.
`CC1CCCCC1` [Methylcyclohexane]: in data set [1], the Limits is reported as 1180 ppm and the “Permissible Daily Exposure” value is reported as 11.8 mg/day.
On to `COCCOC` [1,2-Dimethoxyethane], for which, in data set [1], the Limits is 100 ppm and the “Permissible Daily Exposure” value is reported as 1.0 mg/day.
Regarding IrIMes(COD) PF6, in data set [3], the “concentration in the aqueous phase after washing” value is “lower in the aqueous phase after washing”; the “observability in NMR spectrum of the phases” value is “observable only in one of the phases and not in the other”.
On to `ClCCCl` [1,2-Dichloroethane], for which the Limits in data set [1] was 5 ppm.
`CCCOC(C)=O` [Propyl acetate]: in data set [1], the Limits is listed as 5000 ppm and the “Permissible Daily Exposure” value is reported as 50 mg/day.
On to `C=C(Cl)Cl` [1,1-Dichloroethene], for which, in data set [1], the Limits was 8 ppm.
For `COC(C)=O` [Methyl acetate], in data set [1], the Limits is on record as 5000 ppm and the “Permissible Daily Exposure” value is given as 50 mg/day.
